Experimental data from US20230132823A1, “BI-FUNCTIONAL COMPOUNDS AND METHODS FOR TARGETED UBIQUITINATION OF ANDROGEN RECEPTOR” (MONTELINO THERAPEUTICS, INC., priority 2020, published 2023).

Key:
[1] = tested on: 22Rv1; experiment: 22Rv1 cell proliferation assay (Experimental Example 1, cell count); format: cell-based; details: Homo sapiens, 22Rv1, read-out: 22Rv1 cell count decrease at 10 μM for 48 hours; 10 μM (method: four days); read-out: 22Rv1 cell count decrease at 10 μM
Protocol: The human prostate cancer cell line, 22Rv1 has been reported to express a high level of AR-V7. […] Standard culture media was RPMI-1640 supplemented with 10% fetal bovine serum. The test compound initially was dissolved in DMSO at 50 mM. This stock solution was then diluted as needed for the indicated concentrations. […]
In the Table: (+)—the cell count decreased between 0 and 20%; (++)—the cell count decreased […]; (+++)—the cell count decreased by more than 50%.

[2] = tested on: 22Rv1-Enz^R cells; experiment: 22Rv1-Enz^R cell proliferation (cell count, Experimental Example 3); format: cell-based, human; details: 10 μM, 4 days, MG-132 (5 μM) pretreatment
Protocol: The human prostate cancer cell line, 22Rv1 has been reported to express a high level of AR-V7. Thus, 22Rv1 was seeded at 50,000 cells/well on a 24-well plate in quadruplicates and treated with test compound in concentrations ranging up to 20 μM for four days. Standard culture media was RPMI-1640 supplemented with 10% fetal bovine serum. The test compound initially was dissolved in DMSO at 50 mM. This stock solution was then diluted as needed for the indicated concentrations. At the end of the four-day period, cells were harvested using 1% trypsin and counted using an automated cell counter.
Cell Culture. Human CaP cell lines, LNCaP, 22Rv1, VCaP, PC3, and DU145 are obtained from the American Type Culture Collection (ATCC) and maintained in the standard culture media: RPMI-1640 supplemented with 10% fetal bovine serum (FBS). LNCaP, 22Rv1, and VCaP are androgen-responsive cell lines, while PC3 and DU145 are not. To establish SAT resistant CaP cell lines, LNCaP, 22Rv1, and VCaP are treated continuously with 10-50 μM abiraterone, apalutamide, darolutamide, or enzalutamide. After 3-6 months, stable cell lines are established and designated as LNCaP-Abi^R, LNCaP-Apa^R, LNCaP-Daro^R, LNCaP-Enz^R, VCaP-Abi^R, VCaP-Apa^R, VCaP-Daro^R, VCaP-Enz^R, 22Rv1-Abi^R, 22Rv1-Apa^R, 22Rv1-Daro^R and 22Rv1-Enz^R. Unless otherwise specified, the standard culture media for these SAT-resistant cell lines included 10 μM of their respective SAT. For the proteasome inhibitor study, the inhibitors MG132 and Epoxomicin are used. The E3 ligase inhibitors Heclin, Nutlin 3a, Thalidomide, and VH298 are used. Cell lines obtained from ATCC are confirmed by checking their morphology using optical microscopy, establishing baselines for cell proliferation, verifying species of origin using isoenzymology, and characterizing the cell's DNA fingerprint using short tandem repeat (STR) profiling. Mycoplasma contamination is also assessed using a PCR based detection system.

[3] = tested on: 22Rv1 cells; experiment: Apoptosis assay (annexin-V, TUNEL) in 22Rv1; format: cell-based, human; details: 22Rv1, 1 μM, 0 to 48 hours; starts approximately three hours after treatment, increases through 48 hours
Protocol: Apoptosis Assay. An apoptosis assay is carried out using the Thermo Fisher ApoDETECT Annexin V-FITC kit following the protocol recommended by the vendor. […] Then, fixed cells are incubated with Annexin V-FITC in PBS solution for 30 minutes at room temperature. After washing three times with PBS, cells are treated with 300 nM DAPI in PBS for 5 minutes at room temperature. Finally, after washing three times with PBS, mounting solution is added and the cells are visualized using immunofluorescence microscopy. Next, a TUNEL assay is performed using Promega DeadEnd Fluorometric TUNEL system. After treatment with Test Compound and fixation as described above in the Annexin-V experiment, 100 μl of equilibration buffer is incubated for 10 min. Then, 50 μl of TdT reaction mix is added and incubated for 60 min at 37° C. in a humidified chamber. Finally, stop solution is added and samples are mounted on slides using mounting medium. To assess non-specific cytotoxicity, an LDH assay kit is used.

[4] = tested on: 22Rv1-Enz^R; experiment: 22Rv1-Enz^R cell proliferation assay, GIC50 (Experimental Example 4); format: cell-based; details: Homo sapiens; 6-day culture, cell media changed every 24 hours
Protocol: Selected compounds were tested in the human prostate cancer cell line, 22Rv1-Enz^R as described in Geun Taek Lee et al., Molecular Cancer Therapeutics, 20:490-9 (2021). These procedures are similar to that described in Experimental Example 1, above, except that the assay conditions are a 6-day culture with cell media changed every 24 hours.
In the Table: (+)—GIC50<20 μM; (++)—GIC50<10 μM; (+++)—GIC50<1 μM.

Cl.NCCCCCCCCCCNc1cccc2c1C(=O)N(C1CCC(=O)NC1=O)C2=O (stereo not shown) [Example 34, 4-((10-aminodecyl)amino)-2-(2,6-dioxopiperidin-3-yl)isoindoline-1,3-dione hydrochloride]
inhibition at 10 µM [1]: < 50% | reduction of 22Rv1-Enz^R cell counts after pretreatment with MG-132 [2]: substantially blocked

CN[C@@H](C)C(=O)N[C@H](C(=O)N1Cc2cc(OCCOCCOc3c(-c4csc(N5CCOCC5)n4)ccc(F)c3F)ccc2C[C@H]1C(=O)N[C@@H]1CCCc2ccccc21)C(C)(C)C.Cl.Cl [Example 35, (S)-7-(2-(2-(2,3-difluoro-6-(2-morpholinothiazol-4-yl)phenoxy)ethoxy)ethoxy)-2-((S)-3,3-dimethyl-2-((S)-2-(methylamino)propanamido)butanoyl)-N-((R)-1,2,3,4-tetrahydronaphthalen-1-yl)-1,2,3,4-tetrahydroisoquinoline-3-carboxamide dihydrochloride]
inhibition at 10 µM [1]: > 50% | reduction of 22Rv1-Enz^R cell counts after pretreatment with MG-132 [2]: substantially blocked

O=C(O)CCCCNC(=O)COc1c(-c2csc(N3CCOCC3)n2)ccc(F)c1F [Example C1, reference compound]
apoptosis, annexin-V assay [3]: no change in apoptosis

O=C(COc1c(-c2csc(N3CCOCC3)n2)ccc(F)c1F)NCCCCCCNc1cccc2c1C(=O)N(C1CCC(=O)NC1=O)C2=O (stereo not shown) [Example 1, 2-(2,3-difluoro-6-(2-morpholinothiazol-4-yl)phenoxy)-N-(6-((2-(2,6-dioxopiperidin-3-yl)-1,3-dioxoisoindolin-4-yl)amino)hexyl)acetamide]
inhibition at 10 µM [1]: < 50% | IC50 [4]: < 20 µM

Cc1ncsc1-c1ccc([C@H](C)NC(=O)[C@@H]2C[C@@H](O)CN2C(=O)[C@@H](NC(=O)CCCCOc2c(F)ccc3sc(N4CCOCC4)nc23)C(C)(C)C)cc1 [Example 42, (2S,4R)-1-((S)-2-(5-((5-fluoro-2-morpholinobenzo[d]thiazol-4-yl)oxy)pentanamido)-3,3-dimethylbutanoyl)-4-hydroxy-N-((S)-1-(4-(4-methylthiazol-5-yl)phenyl)ethyl)pyrrolidine-2-carboxamide]
IC50 [4]: < 10 µM

O=C(COc1c(-c2csc(N3CCOCC3)n2)ccc(F)c1F)NCCCCCCCCCCNc1cccc2c1C(=O)N(C1CCC(=O)NC1=O)C2=O (stereo not shown) [Example 3, 2-(2,3-difluoro-6-(2-morpholinothiazol-4-yl)phenoxy)-N-(10-((2-(2,6-dioxopiperidin-3-yl)-1,3-dioxoisoindolin-4-yl)amino)decyl)acetamide]
inhibition at 10 µM [1]: < 50% | IC50 [4]: < 20 µM
